# In patent US9993488B2, “Dry powder formulations for inhalation” (OtiTopic Inc., priority 2014, dated 2018):
# Read-outs that look alike come from different tables or passages of the source.
# Experiments:
# [1] = Gravimetric emitted dose through DPI devices (TwinCaps, RS01) with NGI; type: physicochemical; conditions: 40 L/min, fill weight 60.00 mg
# Experimental: The aerodynamic particle size distributions (APSDs) of the ASA powders were determined by evaluating emitted doses gravimetrically through two DPI devices, the TwinCaps and the RS01, using a Next Generation Impactor (NGI). Flow rates of approximately 40 and 100 L/min provided the 4 kPa pressure drop across the TwinCaps and RS01 devices, respectively, as stipulated by USP <601>, Inhalation and Nasal Drug Products: Aerosol, Sprays, and Powders—Performance Quality Tests.
# The TwinCaps DPI was tested (2 actuations) using various loaded doses. Testing was performed to determine the approximate emitted dose from the device based on weight. Each test was performed using a freshly prepared NGI.
# The Plastiape RS01 monodose DPI inhaler was also tested using various loaded doses in Size 3 HPMC capsules to determine approximate emitted dose based on the weight.
# [2] = cited from earlier work
# [3] = Solubility of aspirin in solvents; type: physicochemical; conditions: organic solvent or mixture
# Excerpt: The solubility of aspirin in a number of solvents was first evaluated prior to initiating controlled crystallization by addition of a suitable anti-solvent.
# [4] = Solubility of aspirin in anti-solvents / dispersion media; type: physicochemical
# Experimental: After considering a number of factors in the end it was determined that only n-heptane and toluene fulfilled all the requirements, and therefore these were selected for further evaluation. Suspensions of aspirin at 5% w/w were prepared with the various anti-solvents, by charging the required amount of anti-solvent, charging the required amount of aspirin, and then stirring until a homogeneous suspension was obtained. The suspensions were qualitatively evaluated at room temperature and then filtered using a 0.45 μm membrane, which was then placed in an oven and dried at 60° C. until the solvent had completely evaporated. A quantitative analysis was performed on the residue that remained in the membrane by weighing the membrane before and after the test.
# 5% w/w DSPC was used as it was found from previous work to mitigate irritation when inhaled. Additionally, soy lecithin was also used in the concentration of 0.1% w/w. As aspirin is insoluble in n-hexane, it was selected as a dispersion media for the micronized particles. Also, it has boiling point of 70° C. which is much below the melting point of aspirin (˜135° C.) and therefore, an inlet temperature of 85° C. should remove solvent without affecting the aspirin particles.
# vascular events = conditions: cited from earlier work
# [5] = test system: major gastrointestinal and extracranial bleeds; conditions: oral aspirin; cited from earlier work
# respiratory system = assay: Irritation / tolerability on inhalation; type: in vivo
# Excerpt: In addition, particles described herein can be mixed and/or coated with various pharmaceutically acceptable excipients. Excipients can be included in order to improve aerodynamic performance of the active drug, to improve bioavailability, increase stability, to modulate pH, to provide sustained release properties, to provide taste-masking of an irritating drug and/or to improve pharmacokinetic performance. In one embodiment, a dry powder comprises an amount of excipient effective to provide taste-masking of an irritating drug. In terms of suitable formulations for inhalation, not only is particle size important in order to reach a desired region of the respiratory system, but the formulation must be acceptable to patients. […] Consequently, it became necessary to find a suitable excipient in order to mask this property of aspirin.
# Aspirin alone may be too irritating and evoke a choking response (e.g., coughing, bronchospasms) when inhaled. […] For example, symptoms of headache and nasal congestion may be alleviated within about 10 seconds, about 15 seconds, about 20 seconds, about 30 seconds, or within about 45 seconds.
# [6] = test system: platelet aggregation, platelet thromboxane production, urinary 2,3-dinor-TXB2 excretion; conditions: cited from earlier work
# [7] = Pharmacokinetics of orally administered aspirin (literature); conditions: extrapolated from linear pharmacokinetics over 30-400 mg
# [8] = after oral administration of ASA
# [9] = 5% w/w suspension, room temperature, 0.45 μm filtration
# [10] = following administration of ASA
structure (smiles),measurement,setting,value
"OC[C@H]1O[C@@H](O[C@H]2[C@H](O)[C@@H](O)C(O)O[C@@H]2CO)[C@H](O)[C@@H](O)[C@H]1O (stereo partly shown) [Lactose, lactose]",% Emitted (based on fill weight),[1],94.5%
same,Total Emitted Dose,[1],56.73 mg
"CC(=O)Oc1ccccc1C(=O)O [aspirin, acetylsalicylic acid]",elimination half-life,[2]; [8],0.25 to 0.333 h
same,time to peak plasma levels,[2]; [8],about 20 minutes
same,fraction of oral dose bioavailable,"[2]; oral, first pass effect",one to two-thirds
same,fraction of oral dosage lost or inactivated by first pass effect,"[2]; oral, gut and liver",approximately ⅔
same,solubility,"[3]; DMF, 23 °C",500 mg/mL
same,solubility,"[3]; PEG-200, 23 °C",77 mg/mL
same,solubility,"[3]; THF, 3 °C",250 mg/mL
same,solubility,"[3]; THF, 23 °C",500 mg/mL
same,solubility,"[3]; acetone, 3 °C",143 mg/mL
same,solubility,"[3]; acetone, 23 °C",200 mg/mL
same,solubility,"[3]; ethanol, EtOH, 3 °C",63 mg/mL
same,solubility,"[3]; ethanol, EtOH, 23 °C",125 mg/mL
same,solubility,"[3]; methanol, MeOH, 3 °C",133 mg/mL
same,solubility,"[3]; methanol, MeOH, 23 °C",167 mg/mL
same,Behavior towards n-heptane,[4]; [9],phobic behavior
same,Solubility in toluene,[4]; [9],partially soluble
same,Solubility in n-hexane,[4]; n-hexane,insoluble
same,vascular events prevented,"vascular events; Dutch TIA Study, any dose above 30 mg daily",13%
same,risk of stroke or death,"vascular events; SALT, 75 mg/day, patients with cerebrovascular ischemic events",significantly reduces
same,increase of major gastrointestinal and extracranial bleeds,[5],over 50%
same,irritation / tolerability when inhaled,respiratory system,quite irritating
same,inhibition of indices of platelet activation,"[6]; 40 mg ASA versus 100 mg, healthy human subjects",significantly less effective
same,"inhibition of platelet aggregation, thromboxane production, urinary 2,3-dinor-TXB2 excretion",[6]; plain versus enteric-coated 100 mg ASA,equally effective
O=C(O)c1ccccc1O [salicylic acid],expected peak circulating plasma level,[7],~10 µg/mL
same,elimination half-life,[2]; [10],2 to 3 h
same,period of increasing plasma levels,[2]; [10],about 45 minutes
